What is called EC50 is the concentration needed to bring the measured effect to its halfway point.

EC50 data for 86 compounds are collected here from PubChem BioAssay AID1956 (SRMLSC, 2009).

The structures appear in SMILES notation. Active and inactive are the calls of the source. No stated cut-off is given here; in the data, active means maximum fold increase above about 1.5; inconclusive means no clear call, values can overlap the other calls; inactive means below that; tested in PC3 cells. A value given as a limit tells only on which side of the number the result lay.

The test system of the assay is HSV replication augmentation in cells, fold increase. Briefly: enhancers of HSV replication in host cells, fold increase, host cell viability (AID 1956).
Turning to `CCN(CC)c1ccc(/C=N/Nc2nc(C)cc(C)n2)cc1`, the EC50 is 23.2 µM (inactive).
With `Cc1ccc(C(=O)NNC2=Nc3cccc4cccc2c34)cc1` the figure was > 25 µM (inactive).
With `Cc1ccc(-c2nc(NC(=O)CSc3nnc4scc(-c5ccccc5)n34)ns2)cc1`, the EC50 was > 25 µM (inactive).
With `CCN1C(=O)/C(=C/C=C2\C=CN(CC)c3ccccc32)SC1=S` the figure was > 25 µM (inactive); with `O=C1CCCC2=C1C(c1ccc(Cl)cc1)n1c(s/c(=C\c3ccc4ccncc4c3)c1=O)=N2` (stereo unspecified), > 25 µM (inactive).
Under `O=C(CC1NCCNC1=O)NC1Cc2ccccc2C1` (stereo unspecified) stands > 25 µM (inactive).
Consider `Cc1cccc2nc3c(nc12)-c1ccccc1C3=O`, for which the EC50 was > 25 µM (inactive).
For the compound `C=CCNC(=S)Nc1ccc2nc(C)oc2c1`, the EC50 was > 25 µM (inactive).
With `Cc1nc2ccccc2c2oc(C(=O)N3CCc4ccccc4C3)cc12` the figure was > 25 µM (inactive); with `OC(CNCc1ccccc1)c1ccccc1` (stereo unspecified), > 25 µM (inactive).
Under `COc1cccc(C(=O)N2CCN(CCCc3ccccc3)CC2)c1OC` stands > 25 µM (inactive).
In the case of `O=C(C1=NN[C@@H]2C(=O)N(c3cccc(F)c3)C(=O)[C@H]12)c1cnccn1`, the EC50 is > 25 µM (inactive).
Regarding `O=C(c1cc(COc2ccc3ncccc3c2)on1)N1CCC(O)CC1`, the EC50 was > 25 µM (inactive).
`Nc1ccccc1Nc1cc(-c2ccccc2)[nH]n1`: the EC50 is 10.9 µM (inactive).
With `CSc1nc(Cl)c(Cc2ccc(OC(C)C)cc2)c(N(C)C)n1` the figure was > 25 µM (inactive); with `NS(=O)(=O)c1ccc(NC(=O)COC(=O)c2c3c(nc4ccccc24)/C(=C\c2ccc4c(c2)OCO4)CCC3)cc1`, > 25 µM (inactive); with `O=C(O)/C=C/C(=O)Nc1ccc(-n2ccc(C(F)(F)F)n2)cc1`, > 25 µM (inactive).
Under `C[N+]1=C(/C=C/Nc2ccccc2Cl)C(C)(C)c2ccccc21` stands > 25 µM (inactive).
With `COc1ccccc1OP(=O)(Nc1cccnc1)Oc1ccccc1OC` the figure was > 25 µM (inactive).
`NC(=S)Nc1cc(Cl)cc(Cl)c1`: the EC50 was > 25 µM (inactive).
Under `COc1cccc(C2C=C(c3ccc(OC)cc3OC)Nc3nnnn32)c1` (stereo unspecified) stands > 25 µM (inactive); under `CCN(CC)c1ccc(CC2C(=O)N(C)C(=O)N(C)C2=O)cc1`, > 25 µM (inactive); under `Cc1ccccc1C(=O)NNc1ccc([N+](=O)[O-])cc1`, > 25 µM (inactive).
With `CCOC(=O)c1c(NC(=O)c2cc3n(n2)C(C(F)(F)F)CC(c2cccs2)N3)sc(C)c1C` (stereo unspecified) the figure was 16.6 µM (inactive).
Under `O=C(Nc1ccccc1C(=O)Nc1ccccc1C(=O)NCc1ccco1)c1ccco1` stands > 25 µM (inactive).
For the compound `COc1cccc(N2CCN(Cc3nc4scc(-c5ccccc5)c4c(=O)[nH]3)CC2)c1`, the EC50 was 21.9 µM (inactive).
With `Cc1cc(=O)[nH]c(SCC(=O)/C=C2\N(C)c3ccccc3C2(C)C)n1` the figure was > 25 µM (inactive); with `COc1ccc(S(=O)(=O)/N=C2/NC(=O)/C(=C\c3ccco3)S2)cc1`, > 25 µM (inactive); with `Nc1cccnc1Sc1cc(Cl)c(Cl)cc1Cl`, > 25 µM (inactive).
Regarding `Cc1ccc(-n2nc3c(c2NC(=O)c2ccc(OC(C)C)cc2)CS(=O)C3)cc1` (stereo unspecified), the EC50 was > 25 µM (inactive).
With `CNC(=S)NNC(=O)c1ccc(=O)n(Cc2ccc(Cl)cc2Cl)c1` the figure was > 25 µM (inactive).
With `CC1(C)CC(=O)C(C=Nc2ccc(C(=O)c3ccccc3)cc2N=CC2=C(O)CC(C)(C)CC2=O)=C(O)C1` the figure was > 25 µM (inactive).
`CC(C)(C)c1ccc(Cn2c(=N)n(CC(O)c3ccco3)c3ccccc32)cc1` (stereo unspecified): the EC50 was 11.4 µM (inactive).
With `COc1ccccc1NC(=O)c1ccc(Br)o1` the figure was > 25 µM (inactive).
With `COC(=O)c1c(C)[nH]c(O)c1C=Nc1ccc(C(C)C)cc1` the figure was > 25 µM (inactive).
With `N#C/C(=C\Nc1ccc2cn[nH]c2c1)c1nc(-c2ccc(Cl)cc2)cs1` the figure was 24.4 µM (inactive).
As to `N#C/C(=C\c1ccccc1[N+](=O)[O-])C(=O)NC1CCCCC1`, the EC50 is > 25 µM (inactive).
Under `CC(C)(C)c1cc(-c2n[nH]c(=S)n2-c2ccccc2F)n[nH]1` stands > 25 µM (inactive).
With `CC(C(=O)c1c[nH]c2ccccc12)N1CCc2ccccc2C1` (stereo unspecified), the EC50 was > 25 µM (inactive).
On to `CN1C(=O)C(C2c3ccccc3C(=O)N2Cc2ccc([N+](=O)[O-])cc2)C(=O)N(C)C1=O` (stereo unspecified), for which the EC50 was > 25 µM (inactive).
As for `CC(=O)Nc1ccc(S(=O)(=O)Nc2cc(-c3ccccc3)nn2C)cc1`, the EC50 was > 25 µM (inactive).
Under `Cc1cccc(N=C2NC(=O)/C(=C/C=C/c3ccco3)S2)c1` stands > 25 µM (inactive); under `Cc1ccc(Cn2ccc(-c3cnc(-c4ccccc4)s3)n2)cc1`, > 25 µM (inactive).
Under `O=c1cc(N2CCCCC2)c(-c2ccccc2)nn1Cc1c(Cl)cccc1Cl` stands > 25 µM (inactive); under `CN1C(=O)CC(c2ccco2)Sc2ccccc21` (stereo unspecified), > 25 µM (inactive); under `Cc1ccc(Cn2c(=N)n(CC(O)c3ccco3)c3ccccc32)cc1` (stereo unspecified), > 25 µM (inactive).
Under `C=CCN1C(=O)[C@]2(c3ccccc31)C1CCCC=C1C(C#N)=C(N)C2(C#N)C#N` (stereo partly specified) stands > 25 µM (inactive); under `CCOC(=O)c1c(NC(=O)C2COc3ccccc3O2)sc2c1CCN(Cc1ccccc1)C2` (stereo unspecified), > 25 µM (inactive).
Turning to `CC(C)N(C(=O)N1CCC(c2nc(-c3ccncc3)no2)CC1)C(C)C`, the EC50 was > 25 µM (inactive).
Take `CC(C)(C)c1ccc(Oc2ccc(N)cn2)cc1`: the EC50 was > 25 µM (inactive).
Under `O=C1NC(c2ccccc2)=N/C1=C/c1ccco1` stands > 25 µM (inactive); under `CC1=CC(C)(C)Nc2ccc(OC(=O)CN3C(=O)C4CCCCC4C3=O)cc21` (stereo unspecified), > 25 µM (inactive); under `Cc1ccc(Oc2nnc(-c3ccccc3)c3ccccc23)cc1`, > 25 µM (inactive).
For `NNc1nc(-c2ccccc2Cl)nc2sc3c(c12)CCCC3`, the EC50 was > 25 µM (inactive).
With `CS(=O)(=O)N1CC2CCCN2c2cc(C(F)(F)F)ccc21` (stereo unspecified) the figure was > 25 µM (inactive); with `Cc1ccc(-c2nc(CSCC(=O)N3CCN(c4ccccn4)CC3)c(C)o2)cc1`, 15.7 µM (inactive); with `CC1(C(O)(C#CCN2CCCCC2)c2ccccc2)CCCC1` (stereo unspecified), > 25 µM (inactive).
With `CCOC(=O)COc1ccc(S(=O)(=O)Nc2ccc(C)cc2)cc1` the figure was > 25 µM (inactive); with `CCOCCCNC(=S)N1CCCN(c2nc3cc(C)c(C)cc3cc2C#N)CC1`, > 25 µM (inactive); with `COCc1ccc(C(=O)N2CCCC(C(=O)c3cc(F)ccc3F)C2)s1` (stereo unspecified), > 25 µM (inactive).
With `CC(C)Oc1ncnc2c1[nH]c1ccccc12` the figure was 3.18 µM (inactive); with `O=C1NC(=O)N(Cc2ccco2)C(=O)/C1=C\c1cccn1CCOc1ccc(Cl)cc1`, > 25 µM (inactive).
As for `CCc1ccc(NC(=O)COc2ccc(/C=C(/C#N)c3nc4ccccc4[nH]3)cc2OC)cc1`, the EC50 is 24 µM (inactive).
In the case of `CCn1c(/C=C/N(C)c2ccccc2)[n+](CC)c2ccc(Cl)cc21`, the EC50 is 10.2 µM (inactive).
On to `CCOCCCNC(=O)CN1C(=O)C(CC)Oc2ccccc21` (stereo unspecified), for which the EC50 was > 25 µM (inactive).
As to `CC(=O)c1cccc(NC(=O)/C=C/c2ccc([N+](=O)[O-])s2)c1`, the EC50 was 19 µM (inactive).
In the case of `Oc1ccc(N=Nc2cccc(C(F)(F)F)c2)cc1C=Nc1ccc(N2CCOCC2)cc1`, the EC50 was 18.8 µM (inactive).
With `COc1ccc(OC2C(=O)N(Cc3ccc4c(c3)OCO4)C2c2sccc2C)cc1` (stereo unspecified) the figure was > 25 µM (inactive); with `Cc1ccc(S(=O)(=O)N(C(=O)c2ccncc2)c2ccc(OC(=O)c3ccncc3)c3ccccc23)cc1`, 18.3 µM (inactive); with `O=C(O)c1ccc(/C=N/Nc2ncc(C(F)(F)F)cc2Cl)cc1`, > 25 µM (inactive).
For `CC(C)CC(N=C1NC(C)(C)Cc2ccccc21)C(=O)O` (stereo unspecified), the EC50 is > 25 µM (inactive).
As to `Cn1c(C(=O)Nc2ccc3c(c2)OCCO3)cc2c(=O)n(C)c3ccccc3c21`, the EC50 was > 25 µM (inactive).
Take `Cn1cc(Br)c(NC(=O)/C=C/C(=O)O)n1`: the EC50 was > 25 µM (inactive).
Under `Nc1c(Cl)ncnc1N/N=C/c1ccc2ccccc2n1` stands 4.3 µM (inactive); under `CN(CC1CCOCC1)C(=O)CC1C(=O)NCCN1CC1CCCCC1` (stereo unspecified), > 25 µM (inactive); under `COc1ccc(CCc2nnc(CCC(=O)N(C)Cc3ccnc4ccccc34)o2)cc1`, 13.1 µM (inactive).
Consider `CCc1ccc2[nH]c(=O)c(CN(Cc3ccccc3OC)Cc3nnnn3Cc3ccco3)cc2c1`, for which the EC50 was > 25 µM (inactive).
`CCOC(=O)C1=C(N)Oc2c(oc(CO)cc2=O)C1c1ccc(Cl)cc1` (stereo unspecified): the EC50 is > 25 µM (inactive).
Turning to `O=C1CC(/C=C/c2ccccn2)=Nc2ccccc2N1`, the EC50 is 22.8 µM (inactive).
With `CCOC(=O)c1cnc(COc2ccc(OC)cc2)[nH]c1=O` the figure was > 25 µM (inactive).
Under `O=C(Nc1nc(-c2ccccn2)cs1)c1cccc(-n2cnnn2)c1` stands > 25 µM (inactive).
As for `O=S(=O)(Nc1ccc(Cc2ccncc2)cc1)c1ccc(Cl)c(Cl)c1`, the EC50 was > 25 µM (inactive).
Under `CCCN1C(=O)C2(C(C(=O)c3ccc(C)o3)=C(O)C(=O)N2CCCOC)c2ccccc21` (stereo unspecified) stands > 25 µM (inactive); under `COC(=O)C1=C(O)C(C(=O)OC)C(c2ccc(C)cc2)C(C#N)(C#N)C1c1ccc(C)cc1` (stereo unspecified), > 25 µM (inactive); under `Cc1cccc(CSc2nnc(-c3cnccn3)n2C)c1`, > 25 µM (inactive).
As for `N#CC1=C2N=C(N)c3ccccc3N2C2=C(C(=O)CCC2)C1c1ccc(Cl)cc1` (stereo unspecified), the EC50 was > 25 µM (inactive).
